Each structure is given as a SMILES string.

What is called inhibition is the drop in the measured response relative to a control, in per cent.

T1 sequence (Q12809 whole entry): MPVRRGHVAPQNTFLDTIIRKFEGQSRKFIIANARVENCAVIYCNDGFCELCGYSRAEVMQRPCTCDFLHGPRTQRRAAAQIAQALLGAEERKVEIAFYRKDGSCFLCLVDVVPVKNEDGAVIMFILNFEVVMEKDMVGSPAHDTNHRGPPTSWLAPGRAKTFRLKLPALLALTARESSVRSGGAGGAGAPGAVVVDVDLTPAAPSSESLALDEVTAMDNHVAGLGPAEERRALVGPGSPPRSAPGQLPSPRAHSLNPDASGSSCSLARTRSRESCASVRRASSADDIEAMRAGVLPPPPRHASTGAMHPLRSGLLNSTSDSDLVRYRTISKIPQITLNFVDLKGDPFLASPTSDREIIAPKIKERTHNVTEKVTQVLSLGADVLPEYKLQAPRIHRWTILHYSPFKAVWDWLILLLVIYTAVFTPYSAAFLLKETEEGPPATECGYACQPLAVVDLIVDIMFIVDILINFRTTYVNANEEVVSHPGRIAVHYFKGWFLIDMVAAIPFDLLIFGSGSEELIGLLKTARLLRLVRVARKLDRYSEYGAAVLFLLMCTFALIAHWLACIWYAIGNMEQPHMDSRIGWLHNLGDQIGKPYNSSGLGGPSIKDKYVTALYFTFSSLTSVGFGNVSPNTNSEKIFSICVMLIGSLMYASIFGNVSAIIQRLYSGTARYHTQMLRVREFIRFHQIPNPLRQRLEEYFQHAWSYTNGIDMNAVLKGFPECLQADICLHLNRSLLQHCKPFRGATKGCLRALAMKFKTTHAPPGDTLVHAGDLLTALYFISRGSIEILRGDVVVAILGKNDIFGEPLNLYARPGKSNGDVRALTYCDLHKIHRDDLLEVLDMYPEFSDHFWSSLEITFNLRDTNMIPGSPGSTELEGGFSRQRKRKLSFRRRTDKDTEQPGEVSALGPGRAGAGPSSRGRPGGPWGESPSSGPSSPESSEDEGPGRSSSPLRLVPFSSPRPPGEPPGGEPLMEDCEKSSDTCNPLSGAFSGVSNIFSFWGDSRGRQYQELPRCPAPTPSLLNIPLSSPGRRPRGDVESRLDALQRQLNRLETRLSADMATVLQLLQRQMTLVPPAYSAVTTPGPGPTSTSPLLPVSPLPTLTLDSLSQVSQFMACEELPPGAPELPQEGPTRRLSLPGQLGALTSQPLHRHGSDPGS

The data set addresses T1, hERG potassium channel (Homo sapiens, UniProt Q12809).
T1 construct: host or cells: HEK-293
Briefly: hERG manual patch-clamp assay in HEK-293 cells. The class given is cell-based. The settings on record: HEK-293 cells stably expressing the hERG potassium channel, HEK-293 cells stably expressing hERG. The source says:
This experiment was a non-GLP trial conducted with reference to GLP guidelines and in accordance with the following technical guidelines: National Medical Products Administration: Technical Guidelines for Non-Clinical Studies of Potential Effects of Drugs on QT Interval Prolongation (2014), and ICH S7B Guidelines for Non-Clinical Evaluation of Potential Drug-Induced Delayed Ventricular Repolarization (QT Interval Prolongation) in Humans (2005).
Sample preparation: the weighed test substance was prepared into a 5 mM or 10 mM stock solution with DMSO, then diluted with DMSO to a 3.33 mM diluent. The stock solution was then diluted with extracellular fluid to prepare a 10 µM working solution, ensuring a DMSO concentration of 0.3%. The solution was sonicated for 20 min. The solubility of the test sample was visually inspected; all concentrations dissolved completely without any visible precipitate.
Preparation of positive control: 3.99 mg Cisapride (positive control) was prepared into a 10 mM stock solution using 807.96 µL DMSO. This stock solution was then successively diluted with DMSO to 1000, 333.33, 33.33, 3.33, and 0.33 µM dilutions. Before testing, 30 µL of each of the last four dilutions was added to 10 mL of extracellular fluid, ensuring a DMSO concentration of 0.3%. The final working solution concentrations of Cisapride were 1000, 100, 10, and 1 nM. Cisapride was visually inspected for solubility; all concentrations dissolved completely without any visible precipitate.
The blank control stock solution (DMSO) should be stored at room temperature. The blank control working solution should be prepared on the same day and stored at room temperature. The test substance and positive control stock solutions should be stored at -20 °C. […]
The hERG activity of the representative compounds of this disclosure was detected using conventional manual patch-clamp techniques in the art (Patch-Clamp Methods and Protocols, 2014, 2nd edition, Humana Press, edited by Marzia Martina and Stefano Taverna).
Consider `O=C(Nc1ccc(-c2cc3cc(F)c(-c4nnn[nH]4)cc3n2C2CCC2)cc1)C(=O)Nc1ccc(N2CCC3(CCOC3)CC2)cc1` [Example 67], for which the inhibition at 10 µM is 16.9%. Regarding `CC1(n2c(-c3ccc(NC(=O)C(=O)Nc4ccc(N5CCC6(CCOC6)CC5)cc4)cc3)cc3cc(F)c(-c4nnn[nH]4)cc32)CCC1` [Example 68], the inhibition at 10 µM is 8.79%. As for `O=C(Nc1ccc(-c2cc3cc(F)c(-c4nnn[nH]4)cc3n2C2CCC2)cc1)C(=O)Nc1ccc(N2CCC(CO)CC2)cc1` [Example 23], the figure is -0.72%.

(Values after patent publication EP4741383A1, “COMPOUND AND USE THEREOF AS ANTI-CANCER DRUG” (Tyligand Bioscience (Shanghai) Limited, priority 2023, dated 2025).)
